Measurements: ChEMBL document CHEMBL3739268, “Structure activity relationships of 4-hydroxy-2-pyridones: A novel class of antituberculosis agents” (Eur J Med Chem, 2015)
Values after ≈ are worked out from the molar mass of the structure shown.

System: Mycobacterium tuberculosis
Assay: Antituberculosis activity against multi-drug resistant Mycobacterium tuberculosis
Assay type: functional

| Structure (SMILES) | MIC |
| --- | --- |
| CC(C)Cc1cc(O)c(-c2ccccc2)c(=O)[nH]1 | 2.5 µM (≈ 0.608 µg/mL) |
| CC1(C)CCC(Cc2cc(O)c(-c3ccccc3)c(=O)[nH]2)CC1 | 0.04 µM (≈ 0.0125 µg/mL) |
